From patent publication US20060069132A1, “Azolecarboxamide herbicides” (priority 2004, published 2006)

Assays:
[1] = tested on: small flower umbrella sedge; assay: Test B flooded paddy test; type: in vivo, Cyperus difformis; details: 1000 g ai/ha, scale 0 to 100 (0 no effect, 100 complete control)
Outline: (§1)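 Plants grow to 1- to 4-leaf stage (2–18 cm) for postemergence spraying, or to 2-leaf stage for the paddy test. Formulated compound is applied. Greenhouse holding lasts 13–15 days. Response is scored visually relative to controls, 0 no effect to 100 complete control; a dash means no result.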

corn = assay: Test B pre-/postemergence herbicide test; type: in vivo, Zea mays
Outline: (§2)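 Evaluation is visual, comparing treated with control plants on a scale where 0 means no effect and 100 means full control. Treatments were preemergence, or postemergence on seedlings 2–18 cm tall, and held 13–15 days in the greenhouse.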

Italian ryegrass = assay: Test C postemergence herbicide test; type: in vivo, Lolium multiflorum
Experimental: (§3) At the same time, plants selected from these crop and weed species and also winter barley (Hordeum vulgare L.), blackgrass (Alopecurus myosuroides Huds.), canarygrass (Phalaris minor Retz.), chickweed (Stellaria media (L.) Vill.), downy bromegrass (Bromus tectorum L.), green foxtail (Setaria viridis (L.) Beauv.), Italian ryegrass (Lolium multiflorum Lam.), wheat (Triticum aestivum L.), wild oat (Avenafatua L.) and windgrass (Apera spica-venti (L.) Beauv.) were treated with postemergence applications of some of the test chemicals formulated in the same manner. Plants ranged in height from 2 to 18 cm (1- to 4-leaf stage) for postemergence treatments. Plant species in the flooded paddy test consisted of rice (Oryza sativa), smallflower umbrella sedge (Cyperus difformis L.), ducksalad (Heteranthera limosa (Sw.) Willd.) and barnyardgrass (Echinochloa crus-galli (L.) Beauv.) grown to the 2-leaf stage for testing. Treated plants and controls were maintained in a greenhouse for 12 to 14 days, after which time all species were compared to controls and visually evaluated. Plant response ratings, summarized in Table C, are based on a scale of 0 to 100 where 0 is no effect and 100 is complete control. A dash (-) response means no test result.

Surinam grass = assay: Test B pre-/postemergence herbicide test; type: in vivo, Urochloa decumbens
Outline: as §2

blackgrass [2] = assay: Test C postemergence herbicide test; type: in vivo, Alopecurus myosuroides
Experimental: as §3

giant foxtail = assay: Test B pre-/postemergence herbicide test; type: in vivo, Setaria faberi
Outline: as §2

morningglory = assay: Test B pre-/postemergence herbicide test; type: in vivo, Ipomoea coccinea
Outline: (§4)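 Species tested were Echinochloa crus-galli, Ipomoea coccinea, Xanthium strumarium and Oryza sativa, treated both before emergence and at the 1- to 4-leaf stage; rice and barnyardgrass were also tested under flooding at 2 leaves. Greenhouse incubation lasted 13–15 days before visual 0–100 scoring.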

velvetleaf = assay: Test B pre-/postemergence herbicide test; type: in vivo, Abutilon theophrasti
Outline: as §2

downy bromegrass = assay: Test C postemergence herbicide test; type: in vivo, Bromus tectorum
Experimental: as §3

barnyardgrass [3] = assay: Test B flooded paddy test; type: in vivo, Echinochloa crus-galli; details: 1000 g ai/ha, scale 0 to 100 (0 no effect, 100 complete control)
Outline: as §1

large crabgrass = assay: Test B pre-/postemergence herbicide test; type: in vivo, Digitaria sanguinalis
Outline: as §2

wheat [4] = assay: Test C postemergence herbicide test; type: in vivo, Triticum aestivum
Experimental: as §3

wild oat [5] = assay: Test B postemergence herbicide test; type: in vivo, Avena fatua
Outline: (§5)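 After treating 2-leaf paddy plants or 2–18 cm postemergence plants (1 to 4 leaves) with formulated chemical, researchers kept them in a greenhouse for 13–15 days. Effects were judged visually versus controls: 0 indicates none, 100 total control.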

windgrass = assay: Test C postemergence herbicide test; type: in vivo, Apera spica-venti
Experimental: as §3

cocklebur = assay: Test B pre-/postemergence herbicide test; type: in vivo, Xanthium strumarium
Outline: as §4

wild oat [6] = assay: Test C postemergence herbicide test; type: in vivo, Avenafatua
Experimental: as §3

pigweed = assay: Test B pre-/postemergence herbicide test; type: in vivo, Amaranthus retroflexus
Outline: as §2

winter barley = assay: Test C postemergence herbicide test; type: in vivo, Hordeum vulgare
Experimental: as §3

ducksalad = assay: Test B flooded paddy test; type: in vivo, Heteranthera limosa; details: 1000 g ai/ha, scale 0 to 100 (0 no effect, 100 complete control)
Outline: as §1

lambsquarters = assay: Test B pre-/postemergence herbicide test; type: in vivo, Chenopodium album
Outline: as §2

barnyardgrass [7] = assay: Test B pre-/postemergence herbicide test; type: in vivo, Echinochloa crus-galli; details: for Barnyardgrass plant response rating: Postemergence, scale 0 (no effect) to 100 (complete control)
Outline: as §4

canarygrass = assay: Test C postemergence herbicide test; type: in vivo, Phalaris minor
Experimental: as §3

wheat [8] = assay: Test B postemergence herbicide test; type: in vivo, Triticum aestivum; design: key to Wheat plant response rating: 0 = no effect, 100 = complete control
Outline: as §5

rice = assay: Test B flooded paddy test; type: in vivo, Oryza sativa; details: 1000 g ai/ha, scale 0 to 100 (0 no effect, 100 complete control)
Outline: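 Each value is a visual 0–100 response rating taken against controls 13 to 15 days after treatment in the greenhouse. Plants received formulated chemical postemergence at the 1- to 4-leaf stage or, in flooded paddy, at the 2-leaf stage.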

green foxtail = assay: Test C postemergence herbicide test; type: in vivo, Setaria viridis
Experimental: as §3

blackgrass [9] = assay: Test B postemergence herbicide test; type: in vivo, Alopecurus myosuroides
Outline: as §1

[10] = 125 g ai/ha, 0 is no effect, 100 is complete control, preemergence
[11] = Postemergence, 500 g ai/ha, scale 0 (no effect) to 100 (complete control)
[12] = postemergence, 125 g ai/ha, scale 0 to 100
[13] = Postemergence, 500 g ai/ha, scale 0 to 100, 0 no effect, 100 complete control
[14] = postemergence, 62 g ai/ha, scale 0 to 100
[15] = Postemergence, 500 g ai/ha, scale 0 to 100
[16] = Postemergence, 250 g ai/ha, scale 0 to 100, 0 no effect, 100 complete control

CN(C)C(=O)c1cccc(NC(=O)c2nn(C(C)(C)C)nc2Br)c1 [Compound 429]
Sedge, Umbrella plant response rating [1]: 90
Plant response rating (0 to 100 scale), Corn (corn; [10]): 40
Corn plant response rating (corn; [11]): 40
Corn plant response rating (corn; [12]): 30
Plant response rating, Ryegrass, Italian (Italian ryegrass; [13]): 60
Plant response rating, Ryegrass, Italian (Italian ryegrass; [12]): 50
Plant response rating, Ryegrass, Italian (Italian ryegrass; [14]): 45
Plant response rating (0 to 100 scale), Surinam Grass (Surinam grass; [10]): 70
Surinam Grass plant response rating (Surinam grass; [11]): 30
Surinam Grass plant response rating (Surinam grass; [12]): 20
Blackgrass plant response rating (blackgrass [2]; [15]): 65
Plant response rating, Blackgrass (blackgrass [2]; [16]): 60
Plant response rating, Blackgrass (blackgrass [2]; [12]): 60
Plant response rating, Blackgrass (blackgrass [2]; [14]): 45
Plant response rating (0 to 100 scale), Foxtail, Giant (giant foxtail; [10]): 90
Foxtail, Giant plant response rating (giant foxtail; [11]): 40
Foxtail, Giant plant response rating (giant foxtail; [12]): 30
Plant response rating (0 to 100 scale), Morningglory (morningglory; [10]): 90
Morningglory plant response rating (morningglory; [11]): 80
Morningglory plant response rating (morningglory; [12]): 70
Plant response rating (0 to 100 scale), Velvetleaf (velvetleaf; [10]): 80
Velvetleaf plant response rating (velvetleaf; [11]): 60
Velvetleaf plant response rating (velvetleaf; [12]): 50
Plant response rating, Bromegrass, Downy (downy bromegrass; [16]): 45
Plant response rating, Bromegrass, Downy (downy bromegrass; [13]): 55
Plant response rating, Bromegrass, Downy (downy bromegrass; [12]): 40
Plant response rating, Bromegrass, Downy (downy bromegrass; [14]): 40
Barnyardgrass plant response rating (barnyardgrass [3]): 100
Plant response rating (0 to 100 scale), Crabgrass, Large (large crabgrass; [10]): 100
Crabgrass, Large plant response rating (large crabgrass; [11]): 40
Crabgrass, Large plant response rating (large crabgrass; [12]): 30
Plant response rating, Wheat (wheat [4]; [13]): 45
Plant response rating, Wheat (wheat [4]; [12]): 35
Plant response rating, Wheat (wheat [4]; [14]): 25
Oat, Wild plant response rating (wild oat [5]; [11]): 40
Oat, Wild plant response rating (wild oat [5]; [12]): 30
Plant response rating, Windgrass (windgrass; [13]): 60
Plant response rating, Windgrass (windgrass; [12]): 40
Plant response rating, Windgrass (windgrass; [14]): 40
Plant response rating (0 to 100 scale), Cocklebur (cocklebur; [10]): 60
Cocklebur plant response rating (cocklebur; [11]): 70
Cocklebur plant response rating (cocklebur; [12]): 60
Plant response rating, Oat, Wild (wild oat [6]; [13]): 65
Plant response rating, Oat, Wild (wild oat [6]; [12]): 60
Plant response rating, Oat, Wild (wild oat [6]; [14]): 45
Plant response rating (0 to 100 scale), Pigweed (pigweed; [10]): 100
Pigweed plant response rating (pigweed; [11]): 50
Pigweed plant response rating (pigweed; [12]): 40
Barley, Winter plant response rating (winter barley; [15]): 40
Plant response rating, Barley, Winter (winter barley; Postemergence, 125 g ai/ha, scale 0 to 100, 0 no effect, 100 complete control): 35
Plant response rating, Barley, Winter (winter barley; [16]): 35
Plant response rating, Barley, Winter (winter barley; postemergence, 62 g ai/ha, scale 0 to 100 (0 no effect, 100 complete control)): 25
Ducksalad plant response rating (ducksalad): 60
Plant response rating (0 to 100 scale), Lambsquarters (lambsquarters; [10]): 100
Lambsquarters plant response rating (lambsquarters; [11]): 70
Lambsquarters plant response rating (lambsquarters; [12]): 50
Plant response rating (0 to 100 scale), Barnyardgrass (barnyardgrass [7]; [10]): 100
Barnyardgrass plant response rating (barnyardgrass [7]; 125 g ai/ha): 30
Barnyardgrass plant response rating (barnyardgrass [7]; 500 g ai/ha): 60
Plant response rating, Canarygrass (canarygrass; [16]): 55
Plant response rating, Canarygrass (canarygrass; [13]): 60
Plant response rating, Canarygrass (canarygrass; [12]): 40
Plant response rating, Canarygrass (canarygrass; [14]): 20
Wheat plant response rating (wheat [8]; 500 g ai/ha, scale 0 to 100, 0 no effect, 100 complete control, preemergence): 100
Wheat plant response rating (wheat [8]; [11]): 40
Wheat plant response rating (wheat [8]; [12]): 20
Rice plant response rating (rice): 70
Plant response rating, Foxtail, Green (green foxtail; [16]): 55
Plant response rating, Foxtail, Green (green foxtail; [13]): 65
Plant response rating, Foxtail, Green (green foxtail; [12]): 50
Plant response rating, Foxtail, Green (green foxtail; [14]): 40
Blackgrass plant response rating (blackgrass [9]; [11]): 50
Blackgrass plant response rating (blackgrass [9]; [12]): 20
